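Interpolation was linear, between the two tested concentrations surrounding the appropriate level; five concentrations were tested over 48 hours in 96-well plates. GI50 marks 50% less growth. The concentration for full growth arrest is given as TGI.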

The source of these data is PubChem BioAssay (NCI).

Test systems include SNB-75 CNS; BT-549 breast; SK-MEL-2 melanoma; SF-539 CNS; SK-MEL-28 melanoma; EKVX NSCLC; MALME-3M melanoma; SK-MEL-5 melanoma; OVCAR-8 ovarian; A498 renal.
Experiment in all cases: NCI anticancer screen, dose series, 48 h

On to `C=C1C(O)C2C(=C(C)C13CC3)C(=O)C(C)(C)C2OC` (stereo not given), for which the GI50 in the assay with SNB-75 CNS, with BT-549 breast, with SK-MEL-2 melanoma, with SF-539 CNS, in the assay with SK-MEL-28 melanoma and in the assay with EKVX NSCLC was greater than 100 µM in each case. In addition, the GI50 in the assay with MALME-3M melanoma was greater than 100 µM; with SK-MEL-5 melanoma, 50.5 µM; with OVCAR-8 ovarian it was 71.9 µM. In addition, the TGI with SNB-75 CNS, in the assay with BT-549 breast, with SK-MEL-2 melanoma, with SF-539 CNS, in the assay with SK-MEL-28 melanoma and in the assay with EKVX NSCLC was greater than 100 µM throughout. Also, the TGI in the assay with MALME-3M melanoma, in the assay with SK-MEL-5 melanoma and in the assay on OVCAR-8 ovarian was greater than 100 µM in each case.
With `CN(C)CCNc1nc2ccccc2c2c(=O)c3cc(F)ccc3sc12`, the GI50 is 1.45 µM in the assay on SNB-75 CNS; 3.52 µM with BT-549 breast; 2.05 µM with SK-MEL-2 melanoma; 1.67 µM in the assay on SF-539 CNS; 1.79 µM in the assay with SK-MEL-28 melanoma; 1.65 µM in the assay on MALME-3M melanoma. Moreover, in the assay on SK-MEL-5 melanoma, the GI50 is 1.7 µM. For the same molecule, the TGI in the assay on SNB-75 CNS is 2.8 µM; in the assay with BT-549 breast, greater than 100 µM; in the assay on SK-MEL-2 melanoma, 4.06 µM; with SF-539 CNS, 3.07 µM; in the assay with SK-MEL-28 melanoma, 3.23 µM; with MALME-3M melanoma, 3.15 µM. Also, in the assay with SK-MEL-5 melanoma, the TGI was 3.08 µM.
For `Cc1cc(NCCCCNc2ccnc3cc(Cl)ccc23)nc(Nc2ccc(C(=O)N3CCCCC3)cc2)n1`, the GI50 with SNB-75 CNS is 1.72 µM; with BT-549 breast it was 1.69 µM; in the assay with SK-MEL-2 melanoma, 2.05 µM; with SK-MEL-28 melanoma, 1.68 µM; in the assay on EKVX NSCLC it was 2.97 µM; in the assay with A498 renal, 1.61 µM. Moreover, the GI50 with SK-MEL-5 melanoma is 1.7 µM; with OVCAR-8 ovarian, 2.34 µM. In addition, the TGI in the assay on SNB-75 CNS was found to be 3.29 µM; in the assay with BT-549 breast, 3.21 µM; with SK-MEL-2 melanoma, 3.9 µM; with SK-MEL-28 melanoma, 3.37 µM; in the assay on EKVX NSCLC, 10.8 µM; in the assay on A498 renal it was 3.72 µM. For the same molecule, the values for the TGI in the assay on SK-MEL-5 melanoma and in the assay with OVCAR-8 ovarian were 3.07 µM and 5.49 µM, respectively.
As for `COc1ccc(-c2ccc(NNC(=O)c3ccc(F)cc3)nn2)cc1OC`, the GI50 in the assay on SNB-75 CNS is 26.9 µM; with BT-549 breast it was 22.9 µM; in the assay on SF-539 CNS it was greater than 100 µM; with SK-MEL-28 melanoma it was greater than 100 µM; in the assay with EKVX NSCLC it was greater than 100 µM; with A498 renal it was greater than 100 µM. The GI50 with MALME-3M melanoma is greater than 100 µM; in the assay on SK-MEL-5 melanoma, 45 µM. The TGI in the assay on SNB-75 CNS, in the assay with BT-549 breast, in the assay with SF-539 CNS, with SK-MEL-28 melanoma, in the assay with EKVX NSCLC and with A498 renal was greater than 100 µM throughout. Also, the TGI with MALME-3M melanoma and in the assay on SK-MEL-5 melanoma was greater than 100 µM in each case.
With `O=C(NC1CCCCC1)c1ccc(Nc2ncnc3c2cnn3-c2ccccc2)cc1`, the GI50 with SNB-75 CNS is 1.71 µM; in the assay with BT-549 breast, 5.69 µM; in the assay on SK-MEL-2 melanoma, 13.6 µM; with SF-539 CNS, 3.81 µM; with SK-MEL-28 melanoma it was 3.79 µM; in the assay with A498 renal, 3.83 µM. Moreover, the values for the GI50 in the assay with MALME-3M melanoma, with SK-MEL-5 melanoma and in the assay with OVCAR-8 ovarian were 1.97 µM, 21.7 µM and 3.87 µM, respectively. Moreover, the TGI with SNB-75 CNS is 5.4 µM; in the assay on BT-549 breast, 26.4 µM; in the assay with SK-MEL-2 melanoma, 36.2 µM; in the assay on SF-539 CNS, 17.1 µM; with SK-MEL-28 melanoma it was greater than 100 µM; with A498 renal, 39.4 µM. The TGI with MALME-3M melanoma is 4.94 µM; with SK-MEL-5 melanoma, greater than 100 µM; in the assay on OVCAR-8 ovarian, 19.3 µM.
Take `CCc1nc(Cl)c(Cl)c(Cl)n1`: the TGI with SNB-75 CNS, in the assay on BT-549 breast, in the assay with SK-MEL-2 melanoma, with SF-539 CNS, in the assay with SK-MEL-28 melanoma and in the assay with EKVX NSCLC was greater than 100 µM throughout. For the same molecule, the TGI in the assay with MALME-3M melanoma, in the assay on SK-MEL-5 melanoma and in the assay on OVCAR-8 ovarian was greater than 100 µM throughout.
As for `Cc1c2c(C(N)=O)nccc2c(C)c2c1c1ccccc1n2Cc1ccccc1`, the TGI in the assay on SNB-75 CNS was 39.9 µM; with BT-549 breast, 90.4 µM; with SK-MEL-2 melanoma, 43.3 µM; in the assay on SF-539 CNS, 37.7 µM; in the assay with SK-MEL-28 melanoma, greater than 100 µM; with EKVX NSCLC it was greater than 100 µM. Moreover, the TGI in the assay with A498 renal amounted to 46 µM; in the assay with SK-MEL-5 melanoma, 67.5 µM; in the assay with OVCAR-8 ovarian, 31.3 µM.
Regarding `O=C(N/N=C/c1ccc(O)cc1O)c1cccnc1`, the GI50 in the assay on SNB-75 CNS is 1.15 µM; in the assay on BT-549 breast, 7.06 µM; with SK-MEL-2 melanoma, 13.5 µM; in the assay on SF-539 CNS it was 2.64 µM; in the assay on SK-MEL-28 melanoma, 3.59 µM; in the assay with A498 renal, 11.5 µM. The GI50 with MALME-3M melanoma was 5.16 µM; in the assay with SK-MEL-5 melanoma, 3.3 µM; in the assay on OVCAR-8 ovarian it was 2.5 µM. The TGI in the assay on SNB-75 CNS turned out to be 26.1 µM; in the assay on BT-549 breast, 81.6 µM; in the assay on SK-MEL-2 melanoma it was 60.8 µM; in the assay on SF-539 CNS, 19.3 µM; in the assay on SK-MEL-28 melanoma it was 62.6 µM; with A498 renal, 84.1 µM. The TGI in the assay with MALME-3M melanoma is 39.2 µM; in the assay with SK-MEL-5 melanoma, 27.6 µM; in the assay with OVCAR-8 ovarian, 96.3 µM.
Turning to `Cc1ccc(C)c(N2C(=O)C(=O)C(c3nc4ccccc4o3)/C(=N\NC(=O)c3ccccc3O)C2=O)c1` (stereo not given), the TGI is greater than 100 µM in the assay on SNB-75 CNS; greater than 100 µM in the assay with SK-MEL-2 melanoma; 65.2 µM in the assay with SF-539 CNS; greater than 100 µM in the assay with SK-MEL-28 melanoma; greater than 100 µM with EKVX NSCLC; 76.8 µM with A498 renal. Also, the TGI in the assay on MALME-3M melanoma was greater than 100 µM; in the assay with SK-MEL-5 melanoma it was greater than 100 µM; in the assay on OVCAR-8 ovarian, 76.7 µM.
With `CC1(C)N=C(N)N=C(N)N1c1cccc(OCCOc2cccc([N+](=O)[O-])c2)c1`, the GI50 in the assay on SNB-75 CNS is 3.26 µM; in the assay on BT-549 breast it was 7.18 µM; in the assay with SK-MEL-2 melanoma it was 15.2 µM; with SF-539 CNS, 3.41 µM; with SK-MEL-28 melanoma it was 7.86 µM; in the assay on A498 renal, greater than 67.7 µM. Besides, the values for the GI50 with MALME-3M melanoma, with SK-MEL-5 melanoma and with OVCAR-8 ovarian were 7.54 µM, 4.5 µM and 38.6 µM, respectively. In addition, the TGI in the assay with SNB-75 CNS, in the assay with BT-549 breast, with SK-MEL-2 melanoma, with SF-539 CNS, with SK-MEL-28 melanoma and in the assay with A498 renal was greater than 100 µM throughout. The results for the TGI with MALME-3M melanoma, in the assay with SK-MEL-5 melanoma and in the assay with OVCAR-8 ovarian were greater than 100 µM, 33.5 µM and greater than 100 µM, respectively.
